ChEMBL document CHEMBL3351627, “Design and synthesis of 3-isoxazolidone derivatives as new Chlamydia trachomatis inhibitors” (Bioorg Med Chem Lett, 2014)
Activity calls are given as the source filed them. The calls are words filed in the database; no cut-off is given here.

Tests used:
Chlamydia trachomatis [1] = experiment: Bactericidal activity against Chlamydia trachomatis serovar L2 infected in human HeLa cells assessed as growth inhibition compound treated at 200 uM for 1 hr prior infection measured 24 hrs post infection by microscopy; type: functional, organism-based
[2] = Iron chelating activity of the compound at pH 7.4 by UV-visible spectrophotometric titration; type: physicochemical
[3] = Cytotoxicity against mouse fibroblasts at 5 to 200 uM after 24 to 48 hrs by trypan blue exclusion assay; type: cell-based; conditions: fibroblast
HeLa = experiment: Cytotoxicity against human HeLa cells at 5 to 200 uM after 24 to 48 hrs by trypan blue exclusion assay; type: cell-based
Chlamydia trachomatis [4] = experiment: Bactericidal activity against Chlamydia trachomatis serovar L2 infected in human HeLa cells assessed as growth inhibition compound treated for 1 hr prior infection measured 24 hrs post infection by microscopy; type: functional, organism-based
Chlamydia trachomatis [5] = experiment: Bactericidal activity against Chlamydia trachomatis serovar L2 infected in human HeLa cells assessed as growth inhibition compound treated at 5 to 200 uM for 1 hr prior infection measured 24 hrs post infection by microscopy; type: functional, organism-based
Chlamydia trachomatis [6] = experiment: Bactericidal activity against Chlamydia trachomatis serovar L2 infected in human HeLa cells assessed as reduction in inclusion forming unit compound treated at 5 to 25 uM for 1 hr prior infection measured 24 hrs post infection by immunofluorescence assay in presence of 200 uM iron citrate; type: functional, organism-based
Chlamydia trachomatis [7] = experiment: Bactericidal activity against Chlamydia trachomatis serovar L2 infected in human HeLa cells assessed as growth inhibition compound treated at 100 to 200 uM for 1 hr prior infection measured 24 hrs post infection by microscopy in presence of 200 uM iron citrate; type: functional, organism-based
Chlamydia trachomatis [8] = experiment: Bactericidal activity against Chlamydia trachomatis serovar L2 infected in human HeLa cells assessed as growth inhibition compound treated at 50 to 200 uM for 1 hr prior infection measured 24 hrs post infection by microscopy; type: functional, organism-based
Chlamydia trachomatis [9] = experiment: Bacteriostatic activity against Chlamydia trachomatis serovar L2 infected in human HeLa cells assessed as growth inhibition compound treated at >100 uM for 1 hr prior infection measured 24 hrs post infection by microscopy in presence of 200 uM iron citrate; type: functional, organism-based
Chlamydia trachomatis [10] = experiment: Bacteriostatic activity against Chlamydia trachomatis serovar L2 infected in human HeLa cells assessed as growth inhibition compound treated at >100 uM for 1 hr prior infection measured 24 hrs post infection by microscopy; type: functional, organism-based

| SMILES | growth inhibition (GI) (Chlamydia trachomatis [1]) | Activity [2] | Activity [3] | Activity (HeLa) | growth inhibition (GI) (Chlamydia trachomatis [4]) | growth inhibition (GI) (Chlamydia trachomatis [5]) | Activity (Chlamydia trachomatis [6]) | growth inhibition (GI) (Chlamydia trachomatis [7]) | growth inhibition (GI) (Chlamydia trachomatis [8]) | growth inhibition (GI) (Chlamydia trachomatis [9]) | growth inhibition (GI) (Chlamydia trachomatis [10]) |
| --- | --- | --- | --- | --- | --- | --- | --- | --- | --- | --- | --- |
| O=C(N[C@@H]1CON(CCOC(=O)c2cccc(O)c2O)C1=O)c1cccc(O)c1O | Active | Active | Non-toxic | Non-toxic | Dose-dependent effect |  |  |  |  |  |  |
| COc1cccc(C(=O)N[C@@H]2CON(CCc3c[nH]cn3)C2=O)c1OC |  |  | Non-toxic | Non-toxic | Dose-dependent effect | inactive |  |  |  |  |  |
| N[C@@H]1CONC1=O |  |  |  |  |  |  | Active |  |  |  |  |
| O=C(NCCN1OC[C@@H](NC(=O)c2ccc3cccc(O)c3n2)C1=O)c1ccc2cccc(O)c2n1 |  | Not Active | Non-toxic | Non-toxic | Dose-dependent effect | Active | Active | Active |  |  |  |
| O=C(NCCN1OC[C@@H](NC(=O)c2cccc(O)c2O)C1=O)c1cccc(O)c1O |  | Active | Non-toxic | Non-toxic | Dose-dependent effect |  | Active |  | Active |  |  |
| O=C(NCCOC1=NOC[C@H]1NC(=O)c1cccc(O)c1O)c1cccc(O)c1O | Active | Active | Non-toxic | Non-toxic |  |  | Active |  |  |  |  |
| CC(=O)N(O)CCCCCNC(=O)CCC(=O)N(O)CCCCCNC(=O)CCC(=O)N(O)CCCCCN |  |  |  |  |  |  |  |  |  | inactive | Active |
| O=C(NCCN1OC[C@@H](NC(=O)c2ccc3ccccc3n2)C1=O)c1ccc2ccccc2n1 |  | Not Active | Non-toxic | Non-toxic | Dose-dependent effect | inactive | Active |  |  |  |  |
| O=C(N[C@@H]1CON(CCCCOC(=O)c2cccc(O)c2O)C1=O)c1cccc(O)c1O |  | Active | Non-toxic | Non-toxic | Dose-dependent effect |  |  |  | Active |  |  |
| O=C(N[C@@H]1CON(CCc2c[nH]cn2)C1=O)c1cccc(O)c1O |  |  | Non-toxic | Non-toxic | Dose-dependent effect | Active |  |  |  |  |  |
